The molecules below were run against T1, HIF-2α (Homo sapiens, UniProt Q99814) (assay: VEGF ELISA Assay). Details: VEGF expression in 786-0 cells; VEGF in culture medium by ELISA; four parameter dose-response fit.
T1 construct: endogenous in cells; host or cells: 786-0 cells
Type: cell-based
Protocol: The ability of the disclosed compounds to inhibit HIF-2α was measured by determining VEGF expression in 786-0 cells. About 7500 786-0 cells were seeded into each well of a 96-well, white, clear bottom plate (07-200-566, Fisher Scientific) with 200 ul growth medium. Four hours later, compounds were dispensed into wells by Tecan D300e digital dispenser with starting concentration of 10 uM and […] of dilution down to 1 nM as final concentration. Each concentration of treatment was performed in duplicate. About 20 hours later, medium was removed and fresh medium was added, followed by compounds treatment as described above. 24 hours later, cell culture medium was collected to determine VEGF concentration using an ELISA kit (R&D systems, cat #DVE00) following the manufacturer's instruction.
The EC50 is calculated by GraphPad Prism using the dose-response-inhibition (four parameter) equation. The plate with cells was then subjected to CellTiter-Glo luminescence cell viability assay (Promega) to determine the effect of these compounds on cell numbers after the above treatment.

T1 sequence (Q99814 whole entry): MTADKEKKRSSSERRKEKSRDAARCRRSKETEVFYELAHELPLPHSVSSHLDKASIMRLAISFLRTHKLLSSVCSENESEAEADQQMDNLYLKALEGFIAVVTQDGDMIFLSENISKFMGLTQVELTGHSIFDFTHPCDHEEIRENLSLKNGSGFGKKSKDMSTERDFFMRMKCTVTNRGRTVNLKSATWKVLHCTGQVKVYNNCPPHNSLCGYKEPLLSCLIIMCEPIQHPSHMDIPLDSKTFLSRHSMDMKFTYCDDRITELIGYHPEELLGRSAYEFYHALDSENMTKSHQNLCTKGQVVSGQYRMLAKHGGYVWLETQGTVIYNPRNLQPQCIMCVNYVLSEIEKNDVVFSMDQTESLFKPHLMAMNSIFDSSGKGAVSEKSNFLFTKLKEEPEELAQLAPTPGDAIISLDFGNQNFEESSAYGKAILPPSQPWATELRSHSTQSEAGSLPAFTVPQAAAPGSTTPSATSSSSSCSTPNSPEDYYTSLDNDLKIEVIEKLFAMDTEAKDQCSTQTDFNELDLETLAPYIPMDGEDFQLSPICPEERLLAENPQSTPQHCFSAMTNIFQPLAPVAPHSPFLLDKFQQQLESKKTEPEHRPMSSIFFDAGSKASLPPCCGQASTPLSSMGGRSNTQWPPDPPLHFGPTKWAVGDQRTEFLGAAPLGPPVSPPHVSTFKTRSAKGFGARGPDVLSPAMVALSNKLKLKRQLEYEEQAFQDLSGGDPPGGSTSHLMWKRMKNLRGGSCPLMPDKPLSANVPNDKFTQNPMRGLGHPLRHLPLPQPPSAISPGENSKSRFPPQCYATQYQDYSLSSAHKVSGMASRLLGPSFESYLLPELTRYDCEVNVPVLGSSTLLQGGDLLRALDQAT

| SMILES | EC50 |
| --- | --- |
| CC1CCC2(O)c3c(ccc(Oc4cc(F)cc(C#N)c4)c31)C(F)(F)C2(F)F (single isomer, unassigned) [one of 7-1 and 7-2] | 372 nM |
| CC1CCC2(O)c3c(ccc(Oc4cc(F)cc(C#N)c4)c31)C(F)(F)C2(F)F (single isomer, unassigned) [the other of 7-1 and 7-2] | 3050 nM |
| N#Cc1cc(F)cc(Oc2ccc3c4c2CCCC4(O)C(F)(F)C3(F)F)c1 (stereo not drawn) [Compound 1, 3-fluoro-5-((1,1,2,2-tetrafluoro-8a-hydroxy-1,2,6,7,8,8a-hexahydroacenaphthylen-5-yl)oxy)benzonitrile] | 37 nM |
| C=C1CCC2(O)c3c(ccc(Oc4cc(F)cc(C#N)c4)c31)C(F)(F)C2(F)F (stereo not drawn) [Compound 3, 3-fluoro-5-((1,1,2,2-tetrafluoro-8a-hydroxy-6-methylene-1,2,6,7,8,8a-hexahydroacenaphthylen-5-yl)oxy)benzonitrile] | 534 nM |

Molecules with a lower EC50, results first:

| EC50 | SMILES |
| --- | --- |
| 23 nM | N#Cc1cc(F)cc(Oc2ccc3c4c2C(F)C(F)(F)CC4(O)C(F)(F)C3(F)F)c1 (stereo not drawn) [8-1 or 8-2] |
| 6 nM | N#Cc1cc(F)cc(Oc2ccc3c4c2CCC[C@]4(O)C(F)(F)C3(F)F)c1 [Compound 2, (R)-3-fluoro-5-((1,1,2,2-tetrafluoro-8a-hydroxy-1,2,6,7,8,8a-hexahydroacenaphthylen-5-yl)oxy)benzonitrile] |
